Where two headings read alike, the source gives them in different places.
Assays:
KCNQ1 = settings: cited from earlier work
KCNE1-R32D (human) = KCNE1-R32D (human) (UniProt P15382)
KCNE1 (human) = KCNE1 (human) (UniProt P15382)

Compound: COc1ccc(-c2csc(NC(=O)[C@H]3CCCCN3S(=O)(=O)c3ccc(C)cc3)n2)cc1 [ML277]
- effect on KCNQ1 (KCNQ1; binds to side pocket in KCNQ1, especially KCNE1-free side pocket, in words): enhance the amplitude of the KCNQ1 current

Compound: CCS(=O)(=O)N(C)[C@H]1c2cc(C#N)ccc2OC(C)(C)[C@@H]1O (racemic) [chromanol 293B]
- effect on KCNQ1 (KCNQ1): inhibit the channel

Compound: O=C(Nc1cc(C(F)(F)F)ccc1O)Nc1cc(C(F)(F)F)ccc1O [NS1643]
- effect on KCNQ1 (KCNQ1; binds to KCNQ1, in words): enhance the channel conductance

Compound: SSD609 (peptide)
- current of KCNQ1/KCNE1-R32D left under SSD609 in transfected CHO cells, whole-cell patch clamp (KCNE1-R32D (human)): < 10%
- current of wild-type KCNQ1/KCNE1 left under SSD609 in transfected CHO cells, whole-cell patch clamp (reference of the R32D mutant) (KCNE1 (human)): 30%
